{"source": "paper PMC5242521", "about": "(PLoS ONE, 2017)", "molecular_target": "T1, OATP1B3 (Homo sapiens, UniProt Q9NPD5)", "T1 construct": "expressed in transfected cells; host or cells: CHO", "T1 sequence (Q9NPD5 1-702)": "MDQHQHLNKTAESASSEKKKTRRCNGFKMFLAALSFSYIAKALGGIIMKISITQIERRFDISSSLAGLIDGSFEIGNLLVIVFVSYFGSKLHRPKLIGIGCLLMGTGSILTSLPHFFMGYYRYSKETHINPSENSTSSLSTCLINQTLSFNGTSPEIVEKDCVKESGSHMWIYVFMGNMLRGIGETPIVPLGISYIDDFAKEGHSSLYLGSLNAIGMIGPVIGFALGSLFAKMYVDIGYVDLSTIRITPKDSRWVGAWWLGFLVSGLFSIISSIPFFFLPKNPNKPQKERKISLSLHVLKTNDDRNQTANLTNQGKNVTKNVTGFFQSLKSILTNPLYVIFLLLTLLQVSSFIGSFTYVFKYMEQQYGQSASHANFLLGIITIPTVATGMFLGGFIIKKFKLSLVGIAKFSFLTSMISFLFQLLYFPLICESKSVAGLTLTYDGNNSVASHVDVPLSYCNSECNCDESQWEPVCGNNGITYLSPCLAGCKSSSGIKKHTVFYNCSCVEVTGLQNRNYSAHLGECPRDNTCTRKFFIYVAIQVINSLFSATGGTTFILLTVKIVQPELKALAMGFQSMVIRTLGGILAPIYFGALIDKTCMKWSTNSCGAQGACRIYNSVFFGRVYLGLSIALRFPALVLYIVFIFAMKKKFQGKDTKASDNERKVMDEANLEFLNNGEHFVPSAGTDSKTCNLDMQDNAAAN", "test": "OATP1B3 activity: fluorescein accumulation in CHO-OATP1B3 cells", "format": "cell-based", "conditions": "pyrethroid up to 100 μM", "experimental": "The effects of pyrethroids on activity of ABC and SLC transporters were determined through measuring cellular accumulation or retention of fluorescent or radiolabeled reference substrates for transporters, in the presence or absence of reference inhibitors, as previously described [41].\nFor accumulation assays (performed for all transporters, excepted BCRP), transporter-expressing cells usually cultured in 48-well plates were first incubated at 37°C with reference substrates in the absence (control) or presence of pyrethroids or reference inhibitors, in a well-defined transport assay medium [42], consisting of 136 mM NaCl, 5.3 mM KCl, 1.1mM KH2PO4, 0.8 mM MgSO4, 1.8 mM CaCl2, 10 mM HEPES, 11 mM D-glucose and adjusted to pH = 7.4 (excepted for MATE transporter assays, for which pH was set to 8.4). The nature of substrates and reference inhibitors and the incubation times with substrates, that varied according to the transporter, were selected in agreement with previous studies [41, 43] and are indicated in S3 Table. The total incubation volume with substrates was 200 μL/well. […]\nIntracellular concentrations of reference substrates were initially expressed as fluorescence arbitrary units (for fluorescent dye substrates) or as moles (for radiolabeled substrates) and normalized to cellular protein content, determined by the Bradford method [44]. […]", "data": [{"smiles": "CC(C)=CC1C(C(=O)OCN2C(=O)C3=C(CCCC3)C2=O)C1(C)C", "note": "(centres unmarked) [tetramethrin]", "values": [{"measurement": "effect on OATP1B3 activity", "result": "failed to alter"}, {"measurement": "effect on OATP1B3 activity", "setting": "listed as Tetramethrin", "result": "No effect (up to 100 μM)"}]}]}
